Experimental data published in paper PMC7730235, “Discovery of a Novel Class of Covalent Dual Inhibitors Targeting the Protein Kinases BMX and BTK” (International Journal of Molecular Sciences, 2020).
One block for each molecule: values may come before it.

Key:
[1] = target: T1, JAK3 (Homo sapiens, UniProt P52333); test: Radiometric kinase assay (Reaction Biology HotSpot); format: biochemical; settings: for JAK3 IC50 of nonreactive analogs (not shown): in words, data not shown
T1 construct: purchased Reaction Biology Corporation
T1 sequence (P52333 1-1124): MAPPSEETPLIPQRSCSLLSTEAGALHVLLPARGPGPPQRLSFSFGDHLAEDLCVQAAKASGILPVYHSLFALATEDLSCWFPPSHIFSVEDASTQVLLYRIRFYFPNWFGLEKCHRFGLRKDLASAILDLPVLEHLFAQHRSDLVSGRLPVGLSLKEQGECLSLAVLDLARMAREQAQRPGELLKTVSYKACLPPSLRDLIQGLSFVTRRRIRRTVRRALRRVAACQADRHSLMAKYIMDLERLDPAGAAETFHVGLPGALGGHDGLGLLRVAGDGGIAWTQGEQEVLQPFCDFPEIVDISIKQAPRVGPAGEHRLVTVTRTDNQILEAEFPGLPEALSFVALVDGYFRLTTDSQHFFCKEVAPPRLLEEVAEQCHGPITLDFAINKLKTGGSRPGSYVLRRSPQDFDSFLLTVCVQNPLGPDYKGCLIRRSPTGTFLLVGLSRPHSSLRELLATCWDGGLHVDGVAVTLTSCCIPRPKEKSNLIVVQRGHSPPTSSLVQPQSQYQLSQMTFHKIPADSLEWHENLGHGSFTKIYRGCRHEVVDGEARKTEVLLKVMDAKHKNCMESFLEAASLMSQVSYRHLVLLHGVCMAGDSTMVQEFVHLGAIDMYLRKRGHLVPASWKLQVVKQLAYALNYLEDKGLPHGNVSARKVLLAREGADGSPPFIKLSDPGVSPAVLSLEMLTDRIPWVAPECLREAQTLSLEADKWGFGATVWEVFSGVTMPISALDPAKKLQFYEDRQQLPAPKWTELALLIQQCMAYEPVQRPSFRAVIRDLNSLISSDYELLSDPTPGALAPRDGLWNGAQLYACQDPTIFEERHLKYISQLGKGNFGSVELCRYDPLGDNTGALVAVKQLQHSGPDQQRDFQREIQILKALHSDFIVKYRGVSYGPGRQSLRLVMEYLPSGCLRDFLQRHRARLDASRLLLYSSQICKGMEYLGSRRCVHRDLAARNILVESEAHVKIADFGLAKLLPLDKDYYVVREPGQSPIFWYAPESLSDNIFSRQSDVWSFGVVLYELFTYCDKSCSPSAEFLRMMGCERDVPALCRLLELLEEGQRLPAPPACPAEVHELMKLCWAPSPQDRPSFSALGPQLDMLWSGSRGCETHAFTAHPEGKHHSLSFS
Description: (§1) If not mentioned differently, in vitro profiling of compounds was performed at Reaction Biology Corporation using the HotSpot™ assay platform.

[2] = target: T2, Full length BMX (C-terminal NanoLuc fusion) (Homo sapiens, UniProt P51813); test: Cellular NanoBRET target engagement assay in HEK293T cells; format: cell-based; settings: 0.5 µM Tracer K4, 2 h incubation
T2 construct: Full length BMX and BTK was cloned into pFC32K; expressed in transfected cells; host or cells: HEK293T
T2 sequence (P51813 1-675): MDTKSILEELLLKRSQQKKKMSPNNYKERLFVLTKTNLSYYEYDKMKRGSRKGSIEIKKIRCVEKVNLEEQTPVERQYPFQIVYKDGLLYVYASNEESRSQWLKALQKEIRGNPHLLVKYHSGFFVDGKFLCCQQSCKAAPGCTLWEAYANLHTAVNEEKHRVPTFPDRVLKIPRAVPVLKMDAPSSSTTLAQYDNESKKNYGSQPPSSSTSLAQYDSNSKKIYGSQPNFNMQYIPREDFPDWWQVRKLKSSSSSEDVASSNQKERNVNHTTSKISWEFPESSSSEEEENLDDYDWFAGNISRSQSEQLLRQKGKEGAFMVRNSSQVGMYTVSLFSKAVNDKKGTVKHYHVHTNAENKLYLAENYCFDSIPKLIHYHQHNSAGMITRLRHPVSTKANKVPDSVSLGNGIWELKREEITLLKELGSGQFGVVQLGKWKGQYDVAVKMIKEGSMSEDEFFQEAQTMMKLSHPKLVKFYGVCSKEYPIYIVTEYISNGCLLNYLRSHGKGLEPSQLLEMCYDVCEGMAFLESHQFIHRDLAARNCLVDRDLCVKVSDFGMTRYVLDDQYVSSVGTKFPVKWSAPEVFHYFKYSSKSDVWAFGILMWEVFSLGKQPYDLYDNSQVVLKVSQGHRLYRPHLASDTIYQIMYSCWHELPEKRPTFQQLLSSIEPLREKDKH
Description: (§2) Full length BMX and BTK was cloned into pFC32K (Promega, Madison, WI, USA) for expression of a C-terminal NanoLuc fusion. The plasmids were transfected into HEK293T cells cultured in DMEM (Gibco, Waltham, MA, USA) supplemented with 10% fetal bovine serum (Gibco, Waltham, MA, USA) and Penicillin/Streptamycin (Gibco, Waltham, MA, USA). NanoBRET assays were performed using the protocol published previously. Briefly, after transfection and 20 h incubation cells were harvested and subsequently resuspended in OptiMEM (Gibco, Waltham, MA, USA). Cells were aliquoted onto […] (Greiner, Kremsmünster, Austria), and inhibitors as well as 0.5 µM Tracer K4 (Promega) for BMX or 0.5 µM Tracer K5 (Promega, Madison, WI, USA) for BTK were added using an ECHO acoustic dispenser. The plates were incubated at 37 °C with 5% CO2 for 2 h prior to the addition of both NanoBRET NanoGlo substrate (Promega, Madison, WI, USA) and extracellular NanoLuc inhibitor. BRET luminescence (450 nm for donor emission and 610 nm for BRET signal) was measured using PHERAstar FSX plate reader (BMG Labtech, Ortenberg, Germany). Milli-BRET units (mBU) were calculated as a ratio between BRET signal and the overall measured luminescence. A dose–response fitting was applied and IC50 values were calculated using the Prism software. […] Experiments were performed as tripicates and repeated at least three times.

[3] = target: T3, Full length BTK (C-terminal NanoLuc fusion) (Homo sapiens, UniProt Q06187); test: as above; format: cell-based; settings: 0.5 µM Tracer K5, 2 h incubation
T3 construct: Full length BMX and BTK was cloned into pFC32K; expressed in transfected cells; host or cells: HEK293T
T3 sequence (Q06187 whole entry, the tested form may be a part): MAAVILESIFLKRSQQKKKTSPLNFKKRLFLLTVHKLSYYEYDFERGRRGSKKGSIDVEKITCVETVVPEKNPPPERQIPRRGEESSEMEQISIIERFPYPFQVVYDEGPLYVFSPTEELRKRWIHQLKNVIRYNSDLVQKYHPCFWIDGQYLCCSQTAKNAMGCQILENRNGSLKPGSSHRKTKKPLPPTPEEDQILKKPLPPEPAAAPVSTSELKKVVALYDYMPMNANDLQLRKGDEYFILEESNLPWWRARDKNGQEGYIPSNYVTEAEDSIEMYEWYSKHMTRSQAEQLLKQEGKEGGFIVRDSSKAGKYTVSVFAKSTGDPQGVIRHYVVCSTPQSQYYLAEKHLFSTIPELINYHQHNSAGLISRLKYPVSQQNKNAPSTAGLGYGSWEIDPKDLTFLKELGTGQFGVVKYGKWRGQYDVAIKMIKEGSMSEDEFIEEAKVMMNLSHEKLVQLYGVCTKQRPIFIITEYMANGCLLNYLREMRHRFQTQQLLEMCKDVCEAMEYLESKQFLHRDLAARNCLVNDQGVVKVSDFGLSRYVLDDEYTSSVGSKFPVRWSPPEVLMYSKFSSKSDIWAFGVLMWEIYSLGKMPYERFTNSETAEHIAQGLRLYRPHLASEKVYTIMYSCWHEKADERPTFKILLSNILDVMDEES
Description: as §2

[4] = target: T4, kinase domain of BMX (Homo sapiens, UniProt P51813); test: Mass spectrometric investigation of covalent binding to BMX (ESI-TOF); settings: 4 °C; for covalent labeling of BMX (in words): 1.5-fold molar excess, complete labeling refers to 30 min
T4 construct: The kinase domains of JAK3 and BMX at 2 μM
Description: The kinase domain of BMX was diluted to 0.05 mM with buffer containing 20 mM Tris pH 8.0, 200 mM NaCl, 0.5 mM TCEP (pH 7.0) and was subsequently mixed with 0.075 mM inhibitors (ratio of protein to inhibitor of 1:1.5). The mixture was incubated at 4°C. The samples were taken at different time points, the reaction stopped by diluting the sample with a 200-fold excess of 1% formic acid. The denatured protein and the adducts were assessed using electrospray time-of-flight (ESI-TOF) mass spectrometry.

[5] = target: T4, kinase domain of BMX; test: Thermal shift (ΔTm) assay; format: binding; settings: 2 μM kinase domain, 10 μM inhibitor; mean ± SD of at least three measurements
Description: (§3) The kinase domains of JAK3 and BMX at 2 μM were mixed with the inhibitors at 10 μM, and subsequently SyPRO orange dye (Invitrogen Carlsbad, CA, USA) was added. The thermal shift assay and data evaluation were performed as described previously using a Real-Time PCR Mx3005p machine (Stratagene, La Jolla, CA, USA).

[6] = target: T5, kinase domain of JAK3 (Homo sapiens, UniProt P52333); test: Thermal shift (ΔTm) assay; format: binding; settings: 2 μM kinase domain, 10 μM inhibitor; mean ± SD of at least three measurements
T5 construct: The kinase domains of JAK3 and BMX at 2 μM; made in house
Description: as §3

[7] = target: T6, BMX (Homo sapiens, UniProt P51813); test: Radiometric kinase assay (Reaction Biology HotSpot); format: biochemical; settings: radiometric HotSpot, five-dose singlicate, [ATP] = 10 μM
T6 construct: purchased Reaction Biology Corporation
T6 sequence (P51813 1-675): T2 sequence (P51813 1-675)
Description: as §1

[8] = 1.5-fold molar excess of inhibitor, 30 min
[9] = 1.5-fold molar excess of inhibitor, 60 min
[10] = 1.5-fold molar excess of inhibitor, 120 min
[11] = 1.5-fold molar excess of inhibitor, 240 min

Compound: CCC(=O)Nc1cccc(-c2c[nH]c3ncc(C(N)=O)cc23)c1 [Compound 10b, 3-(3-propionamidophenyl)-1H-pyrrolo[2,3-b]pyridine-5-carboxamide]
JAK3 IC50 of nonreactive analogs (not shown) [1]: micromolar range
IC50 [2]: > 10000 nM
IC50 [3]: > 10000 nM
native (unmodified) BMX fraction, 30 min [4, 8]: 100%
native (unmodified) BMX fraction, 60 min [4, 9]: 100%
native (unmodified) BMX fraction, 120 min [4, 10]: 100%
native (unmodified) BMX fraction, 240 min [4, 11]: 100%
covalent labeling of BMX (in words) [4]: no modification was detectable

Compound: c1ccc(-c2c[nH]c3ncccc23)cc1 [Compound 9c, 3-phenyl-1H-pyrrolo[2,3-b]pyridine]
JAK3 IC50 of nonreactive analogs (not shown) [1]: micromolar range

Compound: C=CC(=O)Nc1cccc(-c2c[nH]c3ncc(C(=O)NC)cc23)c1 [Compound 11c, 3-(3-acrylamidophenyl)-N-methyl-1H-pyrrolo[2,3-b]pyridine-5-carboxamide]
ΔTm at 10 µM [5]: 7.84 ± 0.04 °C
ΔTm at 10 µM [6]: 10.3 ± 0.37 °C

Compound: CCC(=O)Nc1cccc(-c2c[nH]c3ncccc23)c1 [Compound 9b, N-(3-(1H-pyrrolo[2,3-b]pyridin-3-yl)phenyl)propionamide]
JAK3 IC50 of nonreactive analogs (not shown) [1]: micromolar range
IC50 [2]: > 10000 nM
IC50 [3]: 9220 ± 3700 nM
native (unmodified) BMX fraction, 30 min [4, 8]: 100%
native (unmodified) BMX fraction, 60 min [4, 9]: 100%
native (unmodified) BMX fraction, 120 min [4, 10]: 100%
native (unmodified) BMX fraction, 240 min [4, 11]: 100%
covalent labeling of BMX (in words) [4]: no modification was detectable

Compound: NC(=O)c1cnc2[nH]cc(-c3ccccc3)c2c1 [Compound 10c, 3-phenyl-1H-pyrrolo[2,3-b]pyridine-5-carboxamide]
JAK3 IC50 of nonreactive analogs (not shown) [1]: micromolar range

Compound: C=CC(=O)Nc1cccc(-c2c[nH]c3ncc(C(=O)NCC)cc23)c1 [Compound 11d, 3-(3-acrylamidophenyl)-N-ethyl-1H-pyrrolo[2,3-b]pyridine-5-carboxamide]
ΔTm at 10 µM [5]: 7.35 ± 0.19 °C
ΔTm at 10 µM [6]: 10.3 ± 0.26 °C

Compound: C=CC(=O)Nc1cccc(-c2c[nH]c3ncc(C(=O)NCc4ccccc4)cc23)c1 [Compound 11g, 3-(3-acrylamidophenyl)-N-benzyl-1H-pyrrolo[2,3-b]pyridine-5-carboxamide]
ΔTm at 10 µM [5]: 6.84 ± 0.23 °C
ΔTm at 10 µM [6]: 8.29 ± 1.26 °C

Compound: C=CC(=O)Nc1cccc(-c2c[nH]c3ncc(C(=O)NCC4CCCCC4)cc23)c1 [Compound 11f, 3-(3-acrylamidophenyl)-N-(cyclohexylmethyl)-1H-pyrrolo[2,3-b]pyridine-5-carboxamide]
ΔTm at 10 µM [5]: 3.68 ± 0.13 °C
ΔTm at 10 µM [6]: 5.54 ± 0.82 °C

Compound: C=CC(=O)Nc1cccc(-c2c[nH]c3ncc(C(=O)NCC4CC4)cc23)c1 [Compound 11e, 3-(3-acrylamidophenyl)-N-(cyclopropylmethyl)-1H-pyrrolo[2,3-b]pyridine-5-carboxamide]
ΔTm at 10 µM [5]: 6.94 ± 0.07 °C
ΔTm at 10 µM [6]: 9.64 ± 0.28 °C

Next, values leading:

ΔTm at 10 µM [5]: 10.6 ± 0.12 °C
ΔTm at 10 µM [6]: 13.4 ± 0.43 °C
Compound: C=CC(=O)Nc1cccc(-c2c[nH]c3ncc(NC(C)=O)cc23)c1 [Compound 12f, N-(3-(5-acetamido-1H-pyrrolo[2,3-b]pyridin-3-yl)phenyl)acrylamide]

IC50 [7]: 16 nM
ΔTm at 10 µM [5]: 11.5 °C
ΔTm at 10 µM [6]: 10.1 °C
IC50 [2]: 17 ± 7 nM
IC50 [3]: 37 ± 10 nM
BMX covalent adduct fraction, 30 min [4, 8]: 100%
BMX covalent adduct fraction, 60 min [4, 9]: 100%
BMX covalent adduct fraction, 120 min [4, 10]: 100%
BMX covalent adduct fraction, 240 min [4, 11]: 100%
covalent labeling of BMX (in words) [4]: complete labeling
Compound: C=CC(=O)Nc1cccc(-c2c[nH]c3ncc(NC(=O)Cc4cccs4)cc23)c1 [Compound 12i, N-(3-(5-(2-(thiophen-2-yl)acetamido)-1H-pyrrolo[2,3-b]pyridin-3-yl)phenyl)acrylamide]

ΔTm at 10 µM [5]: 11.9 °C
ΔTm at 10 µM [6]: 12.1 °C
Compound: C=CC(=O)Nc1cccc(-c2c[nH]c3ncc(NC(=O)Cc4ccccc4)cc23)c1 [Compound 12h, N-(3-(5-(2-phenylacetamido)-1H-pyrrolo[2,3-b]pyridin-3-yl)phenyl)acrylamide]

ΔTm at 10 µM [5]: 11.37 ± 0.03 °C
ΔTm at 10 µM [6]: 10.9 ± 0.95 °C
Compound: C=CC(=O)Nc1cccc(-c2c[nH]c3ncc(NC(=O)c4ccccc4)cc23)c1 [Compound 12e, N-(3-(3-acrylamidophenyl)-1H-pyrrolo[2,3-b]pyridin-5-yl)benzamide]

IC50 [7]: 4 nM
IC50 ([1]; radiometric HotSpot, five-dose singlicate, [ATP] = 10 μM): 1080 nM
ΔTm at 10 µM [5]: 10.75 ± 0.09 °C
ΔTm at 10 µM [6]: 9.93 ± 0.12 °C
Compound: C=CC(=O)Nc1cccc(-c2c[nH]c3ncc(NC(=O)c4ccco4)cc23)c1 [Compound 12d, N-(3-(3-acrylamidophenyl)-1H-pyrrolo[2,3-b]pyridin-5-yl)furan-2-carboxamide]
